Laboratory results reported in patent publication US20240409585A1, “MACROCYCLIC IMMUNOMODULATORS” (priority 2021, published 2024).
Numbered stars: 1 amine (or outer) side, 2 acyl side, 3 side chain; on linkers, the order of the positions; unused ones are H or OH. Bridge positions count the residues as written; N and C are the ends. Square brackets hold non-standard residues; d marks the D form. Peptide text beside a SMILES is read from it. * marks the point of attachment. X10 = O=C(CCc1c[nH]cn1)NCc1cccc(C[C@H](N[*:1])C(=O)[*:2])c1; Bip(4'-COOH) = N[C@@H](Cc1ccc(-c2ccc(C(=O)O)cc2)cc1)C(=O)O; Bip(4'-NHAc) = CC(=O)Nc1ccc(-c2ccc(C[C@H](N)C(=O)O)cc2)cc1; X13 = O=C(CCc1ccccc1)NCc1cccc(C[C@H](N[*:1])C(=O)[*:2])c1; X7 = O=C(C[C@H](N[*:1])C(=O)[*:2])NS(=O)(=O)c1ccccc1F; Phe(3-CF3) = N[C@@H](Cc1cccc(C(F)(F)F)c1)C(=O)O; Ala(morpholin-4-yl) = N[C@@H](CN1CCOCC1)C(=O)O; Phe(4-COOH) = N[C@@H](Cc1ccc(C(=O)O)cc1)C(=O)O; X5 = CS(=O)(=O)NC(=O)C[C@H](N[*:1])C(=O)[*:2]; Bip = N[C@@H](Cc1ccc(-c2ccccc2)cc1)C(=O)O; Phe(3-CN) = N#Cc1cccc(C[C@H](N)C(=O)O)c1; Phe(3-NH2) = Nc1cccc(C[C@H](N)C(=O)O)c1; Phe(3-Me) = Cc1cccc(C[C@H](N)C(=O)O)c1; Malonyl = O=C(CC(=O)[*:2])[*:1]; Cha = N[C@@H](CC1CCCCC1)C(=O)O; Carboxymethyl = O=C(O)C*; NMeA = CN[C@@H](C)C(=O)O; Orn = NCCC[C@H](N)C(=O)O; Dab = NCC[C@H](N)C(=O)O

Columns and labels:
[1] = biological target: T1, PE-labeled human PD-L1-Ig binding to Jurkat cell line over-expressing human PD-1 (Jurkat-PD-1) (Homo sapiens, UniProt Q15116); assay: Jurkat-PD-1 Cell Binding High-Content Screening Assay (CBA): Method 1; settings: Jurkat-PD-1 cells, PE-labeled PD-L1-Ig; μM; read-out: CBA Method 1 μM
T1 construct: expressed in transfected cells; host or cells: Jurkat
T1 sequence (Q15116 25-288): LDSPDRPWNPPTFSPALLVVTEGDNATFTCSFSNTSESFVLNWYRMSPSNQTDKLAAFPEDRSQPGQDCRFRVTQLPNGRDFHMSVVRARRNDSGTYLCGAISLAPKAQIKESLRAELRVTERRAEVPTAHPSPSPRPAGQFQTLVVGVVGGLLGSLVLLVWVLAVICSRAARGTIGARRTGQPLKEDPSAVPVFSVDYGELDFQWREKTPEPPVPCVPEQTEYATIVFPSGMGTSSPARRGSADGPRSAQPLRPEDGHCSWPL

[2] = biological target: T1, PE-labeled human PD-L1-Ig binding to Jurkat cell line over-expressing human PD-1 (Jurkat-PD-1); assay: Jurkat-PD-1 Cell Binding High-Content Screening Assay (CBA): Method 2 (presence and absence of tween-20); settings: Jurkat-PD-1 cells, PE-labeled PD-L1-Ig 20 nM; presence or absence of tween-20 not given; head μM; read-out: CBA Method 2 μM
Outline: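 Compounds incubated with Jurkat cells overexpressing human PD-1 for 2 h at 37° C, tested with and without tween-20 to flag aggregation. PE-labeled human PD-L1-Ig (20 nM final) added in DMEM/10% FCS; binding read by high-content imaging.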

Row | SMILES | IC50 [1] | IC50 [2]
1 | Cc1cccc(C[C@@H]2NC(=O)[C@H](CC(=O)O)NC(=O)[C@H](Cc3ccc(OCC(=O)O)cc3)NC(=O)[C@H](CN3CCOCC3)NC(=O)CSC[C@@H](C(=O)N[C@@H](CCN)C(N)=O)NC(=O)[C@H](CCCN)NC(=O)[C@H](C(C)C)NC(=O)[C@H](CC3CCCCC3)NC(=O)[C@H](CCN)NC(=O)[C@@H](CC(C)C)NC(=O)[C@H](C)N(C)C(=O)[C@H](CCC(N)=O)NC(=O)[C@H](Cc3ccc(-c4ccccc4)cc3)NC(=O)[C@H](Cc3cccc(C#N)c3)NC2=O)c1 [Example 5030] ({CH2CO}-[Ala(morpholin-4-yl)]Y(Carboxymethyl)D[Phe(3-Me)][Phe(3-CN)][Bip]Q[NMeA][dL][Dab][Cha]V[Orn]C[Dab]-NH2; thioether N-14) | 0.0047 µM | 0.0043 µM
2 | Cc1cccc(C[C@@H]2NC(=O)[C@H](CC(=O)O)NC(=O)[C@H](Cc3ccc(OCC(=O)O)cc3)NC(=O)[C@H](Cc3cccc(CNC(=O)CCc4c[nH]cn4)c3)NC(=O)CSC[C@@H](C(=O)N[C@@H](CCN)C(N)=O)NC(=O)[C@H](CCCN)NC(=O)[C@H](C(C)C)NC(=O)[C@H](CC3CCCCC3)NC(=O)[C@H](CCN)NC(=O)[C@@H](CC(C)C)NC(=O)[C@H](C)N(C)C(=O)[C@H](CCC(N)=O)NC(=O)[C@H](Cc3ccc(-c4ccccc4)cc3)NC(=O)[C@H](Cc3ccc(C(=O)O)cc3)NC2=O)c1 [Example 5035] ({CH2CO}-[X10]Y(Carboxymethyl)D[Phe(3-Me)][Phe(4-COOH)][Bip]Q[NMeA][dL][Dab][Cha]V[Orn]C[Dab]-NH2; thioether N-14) | 0.0042 µM | 0.0035 µM
3 | CC(=O)Nc1ccc(-c2ccc(C[C@@H]3NC(=O)[C@H](Cc4cccc(C)c4)NC(=O)[C@H](CC(=O)O)NC(=O)[C@H](Cc4ccc(C(=O)O)cc4)NC(=O)[C@H](CN4CCOCC4)NC(=O)CSC[C@@H](C(=O)N[C@@H](CCN)C(N)=O)NC(=O)[C@H](CCCN)NC(=O)[C@H](C(C)C)NC(=O)[C@H](CC4CCCCC4)NC(=O)[C@H](CCN)NC(=O)[C@@H](CC(C)C)NC(=O)[C@H](C)N(C)C(=O)[C@H](CCC(N)=O)NC(=O)[C@H](Cc4ccc(-c5ccccc5)cc4)NC3=O)cc2)cc1 [Example 5048] ({CH2CO}-[Ala(morpholin-4-yl)][Phe(4-COOH)]D[Phe(3-Me)][Bip(4'-NHAc)][Bip]Q[NMeA][dL][Dab][Cha]V[Orn]C[Dab]-NH2; thioether N-14) | 0.0048 µM | 0.0044 µM
4 | CC(C)C[C@H]1NC(=O)[C@H](C)N(C)C(=O)[C@H](CCC(N)=O)NC(=O)[C@H](Cc2ccc(-c3ccccc3)cc2)NC(=O)[C@H](Cc2ccc(C(=O)O)cc2)NC(=O)[C@H](Cc2cccc(C(F)(F)F)c2)NC(=O)[C@H](CC(=O)NS(=O)(=O)c2ccccc2F)NC(=O)[C@H](Cc2ccc(C(=O)O)cc2)NC(=O)[C@H](CN2CCOCC2)NC(=O)CSC[C@@H](C(=O)N[C@@H](CCN)C(N)=O)NC(=O)[C@H](CCCN)NC(=O)[C@H](C(C)C)NC(=O)[C@H](CC2CCCCC2)NC(=O)[C@H](CCN)NC1=O [Example 5077] ({CH2CO}-[Ala(morpholin-4-yl)][Phe(4-COOH)][X7][Phe(3-CF3)][Phe(4-COOH)][Bip]Q[NMeA][dL][Dab][Cha]V[Orn]C[Dab]-NH2; thioether N-14) | 0.345 µM | 0.338 µM
5 | Cc1cccc(C[C@@H]2NC(=O)[C@H](CC(=O)NS(C)(=O)=O)NC(=O)[C@H](Cc3ccc(OCC(=O)O)cc3)NC(=O)[C@H](CN3CCOCC3)NC(=O)CSC[C@@H](C(=O)N[C@@H](CCN)C(N)=O)NC(=O)[C@H](CCCN)NC(=O)[C@H](C(C)C)NC(=O)[C@H](CC3CCCCC3)NC(=O)[C@H](CCN)NC(=O)[C@@H](CC(C)C)NC(=O)[C@H](C)N(C)C(=O)[C@H](Cc3ccc(C(=O)O)cc3)NC(=O)[C@H](Cc3ccc(-c4ccccc4)cc3)NC(=O)[C@H](Cc3ccc(C(=O)O)cc3)NC2=O)c1 [Example 5046] ({CH2CO}-[Ala(morpholin-4-yl)]Y(Carboxymethyl)[X5][Phe(3-Me)][Phe(4-COOH)][Bip][Phe(4-COOH)][NMeA][dL][Dab][Cha]V[Orn]C[Dab]-NH2; thioether N-14) | 0.514 µM | 0.517 µM
6 | CC(C)C[C@H]1NC(=O)[C@H](C)N(C)C(=O)[C@H](CCC(N)=O)NC(=O)[C@H](Cc2ccc(-c3ccccc3)cc2)NC(=O)[C@H](Cc2ccc(C(=O)O)cc2)NC(=O)[C@H](Cc2cccc(C(F)(F)F)c2)NC(=O)[C@H](CCNC(=O)CC(=O)O)NC(=O)[C@H](Cc2ccc(C(=O)O)cc2)NC(=O)[C@H](CN2CCOCC2)NC(=O)CSC[C@@H](C(=O)N[C@@H](CCN)C(N)=O)NC(=O)[C@H](CCCN)NC(=O)[C@H](C(C)C)NC(=O)[C@H](CC2CCCCC2)NC(=O)[C@H](CCN)NC1=O [Example 5075] ({CH2CO}-[Ala(morpholin-4-yl)][Phe(4-COOH)][Dab](Malonyl)[Phe(3-CF3)][Phe(4-COOH)][Bip]Q[NMeA][dL][Dab][Cha]V[Orn]C[Dab]-NH2; thioether N-14) | 0.128 µM | 0.372 µM
7 | COC[C@@H]1NC(=O)CSC[C@@H](C(=O)N[C@@H](CCN)C(N)=O)NC(=O)[C@H](CCCN)NC(=O)[C@H](C(C)C)NC(=O)[C@H](CC2CCCCC2)NC(=O)[C@H](CCN)NC(=O)[C@@H](CC(C)C)NC(=O)[C@H](C)N(C)C(=O)[C@H](CCC(N)=O)NC(=O)[C@H](Cc2ccc(-c3ccccc3)cc2)NC(=O)[C@H](Cc2ccc(-c3ccc(NC(C)=O)cc3)cc2)NC(=O)[C@H](Cc2cccc(C)c2)NC(=O)[C@H](CC(=O)O)NC(=O)[C@H](Cc2ccc(OCC(=O)O)cc2)NC1=O [Example 5056] ({CH2CO}-S(Me)Y(Carboxymethyl)D[Phe(3-Me)][Bip(4'-NHAc)][Bip]Q[NMeA][dL][Dab][Cha]V[Orn]C[Dab]-NH2; thioether N-14) | 0.01 µM | 0.0095 µM
8 | Cc1cccc(C[C@@H]2NC(=O)[C@H](CC(=O)O)NC(=O)[C@H](Cc3ccc(OCC(=O)O)cc3)NC(=O)[C@H](CN3CCOCC3)NC(=O)CSC[C@@H](C(=O)N[C@@H](CCN)C(N)=O)NC(=O)[C@H](CCCN)NC(=O)[C@H](C(C)C)NC(=O)[C@H](Cc3cccc(N)c3)NC(=O)[C@H](CCN)NC(=O)[C@@H](CC(C)C)NC(=O)[C@H](C)N(C)C(=O)[C@H](CCC(N)=O)NC(=O)[C@H](Cc3ccc(-c4ccccc4)cc3)NC(=O)[C@H](Cc3ccc(C(=O)O)cc3)NC2=O)c1 [Example 5040] ({CH2CO}-[Ala(morpholin-4-yl)]Y(Carboxymethyl)D[Phe(3-Me)][Phe(4-COOH)][Bip]Q[NMeA][dL][Dab][Phe(3-NH2)]V[Orn]C[Dab]-NH2; thioether N-14) | 0.0159 µM | 0.0146 µM
9 | Cc1cccc(C[C@@H]2NC(=O)[C@H](CC(=O)O)NC(=O)[C@H](Cc3ccc(OCC(=O)O)cc3)NC(=O)[C@H](Cc3cccc(CNC(=O)CCc4ccccc4)c3)NC(=O)CSC[C@@H](C(=O)N[C@@H](CCN)C(N)=O)NC(=O)[C@H](CCCN)NC(=O)[C@H](C(C)C)NC(=O)[C@H](CC3CCCCC3)NC(=O)[C@H](CCN)NC(=O)[C@@H](CC(C)C)NC(=O)[C@H](C)N(C)C(=O)[C@H](CCC(N)=O)NC(=O)[C@H](Cc3ccc(-c4ccccc4)cc3)NC(=O)[C@H](Cc3ccc(C(=O)O)cc3)NC2=O)c1 [Example 5034] ({CH2CO}-[X13]Y(Carboxymethyl)D[Phe(3-Me)][Phe(4-COOH)][Bip]Q[NMeA][dL][Dab][Cha]V[Orn]C[Dab]-NH2; thioether N-14) | 0.0051 µM | 0.0031 µM
10 | CC(C)C[C@H]1NC(=O)[C@H](C)N(C)C(=O)[C@H](CCC(N)=O)NC(=O)[C@H](Cc2ccc(-c3ccccc3)cc2)NC(=O)[C@H](Cc2ccc(-c3ccc(C(=O)O)cc3)cc2)NC(=O)[C@H](Cc2cccc(C(F)(F)F)c2)NC(=O)[C@H](CC(=O)O)NC(=O)[C@H](Cc2ccc(C(=O)O)cc2)NC(=O)[C@H](CN2CCOCC2)NC(=O)CSC[C@@H](C(=O)N[C@@H](CCN)C(N)=O)NC(=O)[C@H](CCCN)NC(=O)[C@H](C(C)C)NC(=O)[C@H](CC2CCCCC2)NC(=O)[C@H](CCN)NC1=O [Example 5058] ({CH2CO}-[Ala(morpholin-4-yl)][Phe(4-COOH)]D[Phe(3-CF3)][Bip(4'-COOH)][Bip]Q[NMeA][dL][Dab][Cha]V[Orn]C[Dab]-NH2; thioether N-14) | 0.0032 µM | 0.0024 µM
11 | Cc1cccc(C[C@@H]2NC(=O)[C@H](CC(=O)O)NC(=O)[C@H](Cc3ccc(OCC(=O)O)cc3)NC(=O)[C@H](CN3CCOCC3)NC(=O)CSC[C@@H](C(=O)N[C@@H](CCN)C(N)=O)NC(=O)[C@H](CCCN)NC(=O)[C@H](C(C)C)NC(=O)[C@H](CC3CCCCC3)NC(=O)[C@H](CCN)NC(=O)[C@@H](CC(C)C)NC(=O)[C@H](C)N(C)C(=O)[C@H](Cc3ccc(C(=O)O)cc3)NC(=O)[C@H](Cc3ccc(-c4ccccc4)cc3)NC(=O)[C@H](Cc3ccc(C(=O)O)cc3)NC2=O)c1 [Example 5045] ({CH2CO}-[Ala(morpholin-4-yl)]Y(Carboxymethyl)D[Phe(3-Me)][Phe(4-COOH)][Bip][Phe(4-COOH)][NMeA][dL][Dab][Cha]V[Orn]C[Dab]-NH2; thioether N-14) | 0.0016 µM | 0.0014 µM
12 | Cc1cccc(C[C@@H]2NC(=O)[C@H](CC(=O)O)NC(=O)[C@H](Cc3ccc(C(=O)O)cc3)NC(=O)[C@H](CN3CCOCC3)NC(=O)CSC[C@@H](C(=O)N[C@@H](CCN)C(N)=O)NC(=O)[C@H](CCCN)NC(=O)[C@H](C(C)C)NC(=O)[C@H](CC3CCCCC3)NC(=O)[C@H](CCN)NC(=O)[C@@H](CC(C)C)NC(=O)[C@H](C)N(C)C(=O)[C@H](CCC(N)=O)NC(=O)[C@H](Cc3ccc(-c4ccccc4)cc3)NC(=O)[C@H](Cc3ccc(-c4ccc(C(=O)O)cc4)cc3)NC2=O)c1 [Example 5059] ({CH2CO}-[Ala(morpholin-4-yl)][Phe(4-COOH)]D[Phe(3-Me)][Bip(4'-COOH)][Bip]Q[NMeA][dL][Dab][Cha]V[Orn]C[Dab]-NH2; thioether N-14) | 0.0029 µM | 0.0033 µM
